The term Tmax denotes the time at which the peak concentration occurs. The term AUC(0-t) denotes the area under the concentration-time curve up to a stated or last time point. Low values mean less exposure, high ones more exposure. By AUC(0-inf) is commonly meant total exposure, with the tail of the curve extrapolated. A high value points to more exposure. Usually Cmax stands for the highest concentration seen after dosing. A word on the MRT inf: it is the average time that molecules of a dose stay in the body.

Structures are written as SMILES. “And” between values parts separate entries of the source, which are not always exact repeats. Identical values can stand only once. Like-named read-outs stand apart in the source and are kept apart here.

Consider 2 molecules from patent publication US20230141988A1, “PHARMACEUTICAL COMPOSITION FOR USE IN THE TREATMENT OF NEUROLOGICAL DISEASES” (Aclipse One Inc., priority 2020, published 2023).

The conditions of data set [1]: mouse, in vivo.
Procedure: (§1) 9 male C57BL/6J mice following administration of a single subcutaneous dose of 4.40 mg/kg. The vehicle for the subcutaneous formulation contained “0.1% sodium metabisulfite solution”.
(§2) Male C57BL/6J mice were purchased from Si Bei Fu Laboratory Animal Technology Co. Ltd (Beijing, China). The animals were about 8 weeks old with body weights of 20-30 g on the dosing date. The animals were housed in a 12-hour light/12-hour dark cycle environment and had free access to food and water. All animals were fasted overnight and fed after 4 hours collection.
(§3) For group 1, plasma samples were collected from dorsal metatarsal vein at each time point after subcutaneous administrations.
(§4) For plasma samples, about 30 μL or 300 μL of blood samples were collected from each animal via dorsal metatarsal vein or heart. These blood samples were placed into the tubes containing K2EDTA. And centrifugation at 3000 g for 10 minutes in a 4° C. centrifuge. The completion time from collection was less than 30 min. The stabilizing agent of ascorbic acid at 200 mg/mL was added in a proportion of 10% in plasma. The plasma samples were stored in a freezer at −75±15° C. prior to analysis. The completion time from collection was less than 60 min.
(§5) For brain and CSF samples, The animals were fully exsanguinated with a rising concentration of CO2 gas prior to CSF and brain collection.
(§6) For CSF collection, incision was made by scissors on the neck of the rats to expose the foramen magnum. A syringe fitted with a venoclysis needle was used to sample the CSF, the tip of the needle was inserted into the membrane of foramen magnum about 1-2 mm, and a negative pressure was applied by pulling a stopcock a small length of the syringe to extract CSF fluids into a tube. The stopcock was further actuated to until a sufficient amount of CSF was collected. There should be no blood in the CSF fluid. A stabilizing agent of ascorbic acid at 200 mg/mL was added in a proportion of 10% in CSF.
(§7) For brain collection. Brain samples were collected at an adopted time point, and washed 3 times with cold saline, then dried with clean gauze and put into the weighed tube, quick frozen in an ice box and kept at −75±15° C. All brain samples were weighted and homogenized with phosphate buffered saline (PBS) by brain weight (g) to PBS volume (mL) ratio 1:3 before analysis. The stabilizing agent of ascorbic acid at 200 mg/mL was added in a proportion of 10% in grain homogenate. The actual concentration was the detected value multiplied by the dilution factor. Brain samples were collected at designed time point, quickly homogenized and kept at −75±15° C.
(§8) Calibration standard working solutions were prepared at concentrations of 2, 5, 10, 20, 50, 100, 500, 1000, 5000 and 10000 ng/mL by serial dilution of the standard stock solution in 50% acetonitrile in water. Quality control working solutions at concentrations of 5, 10, 500 and 8000 ng/mL were prepared by serial dilution of the standard stock solution in 50% acetonitrile in water. These QC samples were prepared on the day of analysis in the same way as calibration standards.
(§9) For plasma and brain samples, 3 μL of each calibration standard working solution (2, 5, 10, 20, 50, 100, 500, 1000, 5000 and 10000 ng/mL) was added to 30 μL of the blank C57BL/6J mouse plasma or brain homogenate (with 10% 200 mg/mL ascorbic acid) to achieve calibration standards of 0.2-1000 ng/mL (0.2, 0.5, 1, 2, 5, 10, 50, 100, 500, 1000 ng/mL) in a total volume of 33 μL. Quality Control (QC) samples at 0.5 ng/mL (low-1), 1 ng/mL (low-2), 50 ng/mL (mid), 800 ng/mL (high) for plasma were prepared independently for those used for the calibration curves. These QC samples were prepared on the day of analysis in the same way as calibration standards.
For data set [2] the following is noted: male, SD, rat, in vivo, iv, 0.88 mg/kg, 1 h.
Procedure: (§10) The vehicle for the IV, subcutaneous, PO and IN formulation contained “0.1% sodium metabisulfite solution”.
(§11) Male SD rats were purchased from Si Bei Fu Laboratory Animal Technology Co. Ltd (Beijing, China). The animals were about 8 weeks old with body weights of 200-300 g on the dosing date. The animals were housed in a 12-hour light/12-hour dark cycle environment and had free access to food and water. All animals were fasted overnight and fed after 4 hours collection.
(§12) Plasma samples were collected from jugular vein at each time point after IV, subcutaneous, PO and IN administrations.
(§13) About 200 μL of blood samples were collected from each animal via jugular vein. These blood samples were placed into the tubes containing K2EDTA. And centrifugation at 3000 g for 10 minutes in a 4° C. centrifuge. The completion time from collection was less than 30 min. The stabilizing agent of ascorbic acid at 200 mg/mL was added in a proportion of 10% in plasma. The plasma samples were stored in a freezer at −75±15° C. prior to analysis. The completion time from collection was less than 60 min.
(§14) Calibration standard working solutions were prepared at concentrations of 2, 5, 10, 20, 50, 100, 500, 1000, 5000 and 10000 ng/mL by serial dilution of the standard stock solution in 50% acetonitrile in water. Quality control working solutions at concentrations of 5, 10, 20, 500 and 8000 ng/mL were prepared by serial dilution of the standard stock solution in 50% acetonitrile in water. These QC samples were prepared on the day of analysis in the same way as calibration standards.
(§15) For plasma samples, 2 μL of each calibration standard working solution (2, 5, 10, 20, 50, 100, 500, 1000, 5000 and 10000 ng/mL) was added to 20 μL of the blank SD rat plasma (with 10% 200 mg/mL ascorbic acid) to achieve calibration standards of 0.2-1000 ng/mL (0.2, 0.5, 1, 2, 5, 10, 50, 100, 500, 1000 ng/mL) in a total volume of 22 μL. Quality Control (QC) samples at 0.5 ng/mL (low-1), 1 ng/mL (low-2) and 2 ng/mL (low-3), 50 ng/mL (mid), 800 ng/mL (high) for plasma were prepared independently for those used for the calibration curves. These QC samples were prepared on the day of analysis in the same way as calibration standards. The total volumes of 22 μL of standards, 22 μL of QC samples and 22 μL of unknown samples (20 μL of unknown plasma (with 10% 200 mg/mL ascorbic acid) with 2 μL 50% acetonitrile) were added to 200 μL of acetonitrile containing IS to precipitate proteins. Then the samples were vortexed for 30 sec. After centrifugation at 4° C., 4700 rpm for 30 min, and supernatant was diluted 2 times with water, 10 μL of the diluted supernatant was injected into the LC-MS/MS system for quantitative analysis.
All the samples were processed on ice.
(§16) The LC-MS/MS system consisted of two Shimadzu LC-30AD pumps, a DGU-20A5R degasser, a Rack changer II and LCMS-8060 LC/MS/MS instrument mass spectrometer.
(§17) OD-3R Particle size 3 μm 4.6 mm×150 mm column at room temperature. The mobile phase was composed of A: Water (5 mM Ammonium Acetate); B: Ethanol (5 mM Ammonium Acetate). The flow rate was 0.5 mL/min. The injection volume was 10 μL.
(§18) A multiple reaction monitoring (MRM) method was selected for quantitative analysis. […] The instrument parameters were set as follows: ion spray voltage: 8060; heating gas flow: 10 L/min; interface temperature: 250° C.; DL temperature: 220° C.; heat block temperature: 400° C.; drying gas flow: 10 L/min.
(§19) Data acquisition was performed by Lab Solutions version 5.89 Software (Shimadzu). All concentration data was reported with 3 significant figures. Data statistics were performed using Excel 2010 software.
(§20) The linear trapezoidal algorithm was used for AUC calculation.
Data set [3] is described as follows: in vivo. The following applies: male, C57BL/6J, mouse.
Procedure: as §1, §2, §3, §4, §5, §6, §7, §8, §9
A short description of data set [4]: in vivo. The following applies: male, SD, rat, iv, 0.88 mg/kg.
Procedure: as §10, §11, §12, §13, §14, §15
All the samples were processed on ice.
as §16, §17, §18, §19, §20
Data set [5] can be described thus: Pharmacokinetic and brain penetration study, single subcutaneous dose, male C57BL/6J mouse (plasma, CSF, brain). The settings on record: in vivo, sc, 0.0367 mg/kg.
Procedure: as §1, §2, §3, §4, §5, §6, §7, §8, §9
Data set [6] in a line: Solubility in aqueous media / aqueous buffer solutions. In kind it is physicochemical. The settings on record: hydrochloride salt, aqueous buffer solutions.

Consider `CN1CCc2cccc3c2[C@H]1Cc1ccc(O)c(O)c1-3`, for which, in data set [1] (male, C57BL/6J, sc, 0.0367 mg/kg), the Tmax was 11.7 min. The plasma concentration entry in data set [1] is reported as “BLOQ”; in data set [2], 0.207 ng/mL. The concentration at […] in the data set “in vivo [3]” (0.0367 mg/kg, plasma concentration) was 10.1 ng/mL; in the data set “in vivo [3]” (brain concentration, Mean) it was 48.4 ng/g; in “in vivo [3]” (plasma concentration) it was 7.46 ng/mL and 8.5 ng/mL; in the data set “in vivo [3]” (plasma concentration, Mean), 6.5 ng/mL and 8.16 ng/mL. In addition, the concentration at 0.5 h in “in vivo [3]” (brain concentration, Conc. (ng/g)) worked out at 38 ng/g; in the data set “in vivo [3]” (brain concentration, Conc. (ng/mL)) it was 7.6 ng/mL; in “in vivo [3]” (brain concentration, Mean), 39.6 ng/g; in “in vivo [3]” (plasma concentration), 5.06 ng/mL; in “in vivo [3]” (plasma concentration, Mean) it was 5.15 ng/mL; in “in vivo [4]” (mean plasma concentration) it was 0.559 ng/mL. In addition, the concentration at 0.5 h in “in vivo [4]” (plasma concentration) is 0.582 ng/mL. The concentration at 1 h in “in vivo [3]” (plasma concentration) was 1.82 ng/mL; in “in vivo [3]” (plasma concentration, Mean), 1.65 ng/mL; in “in vivo [4]” (mean plasma concentration) it was 0.232 ng/mL; in the data set “in vivo [4]” (plasma concentration) it was 0.257 ng/mL. Moreover, the AUC(0-t) in “in vivo [3]” (sc, 0.0367 mg/kg, AUClast) came to 5.1 ng·h/mL. In addition, the AUC(0-inf) in “in vivo [3]” (sc, 0.0367 mg/kg, AUC∞) came out at 5.99 ng·h/mL. Also, the Cmax was 8.56 ng/mL in the data set “in vivo [3]” (sc, 0.0367 mg/kg, Cmax) and 7.78 ng/mL in data set [5]. Besides, in the data set “in vivo [3]” (sc, 0.0367 mg/kg, MRTInf), the MRT inf turned out to be 32.5 min. Moreover, the concentration at 2 min is 3.75 ng/mL in the data set “in vivo [4]” (mean plasma concentration) and 3.85 ng/mL in “in vivo [4]” (plasma concentration).
As for `CN1CCc2cccc3c2[C@@H]1Cc1ccc(O)c(O)c1-3.Cl`, in data set [6], the solubility entry is given as “low solubility”.
